Numbers after ± are expanded uncertainties.

For data set [1] the following is noted: DTA.
Data set [2] is described as follows: Molar enthalpy of transition or fusion. To be noted: DSC.

With `CC(N)=O` [ethanamide], the Normal melting temperature in data set [1] (Crystal) was determined as 80.62 ± 1.1 °C; in data set [1] (Metastable crystal), 70.14 ± 1.1 °C. For the same compound, the “Molar enthalpy of transition or fusion” value came out at 3.26 ± 0.335 kcal/mol in data set [2] (Crystal) and 2.78 ± 0.287 kcal/mol in data set [2] (Metastable crystal).
Consider `CCCCCCCCCCCCCCCCCC(=O)O` [octadecanoic acid], for which, in data set [1] (Crystal), the Normal melting temperature turned out to be 69.47 ± 1.1 °C. Besides, the “Molar enthalpy of transition or fusion” value in data set [2] (Crystal) worked out at 14.4 ± 1.46 kcal/mol.

(Values after the NIST ThermoML archive (doi:10.1016/j.jct.2016.11.022).)
